Measured values from US10124065B2, “Lipids and lipid compositions for the delivery of active agents” (Novartis AG, priority 2013, dated 2018).
Like-named read-outs stand apart in the source and are kept apart here.

How the values were obtained:
[1] = pKa measurement of cationic lipid (TNS fluorescence); assay type: physicochemical; conditions: pKa of the cationic lipid of formula (I), Table 4
Experimental: Unless indicated otherwise, all pKa's referred to herein were measured at standard temperature and pressure. Also, unless otherwise indicated, all references to pKa are references to pKa measured using the following technique. 2 mM solution of lipid in ethanol was prepared by weighing the lipid and then dissolving it in ethanol. 0.3 mM solution of fluorescent probe TNS in ethanol:methanol 9:1 was prepared by first making 3 mM solution of TNS in methanol and then diluting to 0.3 mM with ethanol. An aqueous buffer containing 200 mM sodium phosphate dibasic and 100 mM citric acid was prepared. […] Using the Hamilton Microlab Star high throughput liquid handler and Hamilton run control software Software, 7.5 uL of probe/lipid mix were added to 242.5 uL of buffer in a 1 mL 96 well plate (model NUNC 260252, […] Nunc International). This was done with all twelve buffers. After mixing in 1 mL 96 well plate, 100 uL of each probe/lipid/buffer mixture was transferred to a 250 uL black with clear bottom 96 well plate (model COSTAR 3904, Corning). The fluorescence measurements are carried out on the SpectraMax M5 spectrophotometer using software SoftMax pro 5.2 and following parameters: After the measurement, the background fluorescence value of an empty well on the 96 well plate was subtracted from each probe/lipid/buffer mixture. The fluorescence intensity values were then normalized to the value at lowest pH. The normalized fluorescence intensity vs. pH chart was then plotted in the Microsoft Excel software. The twelve points were connected with a smooth line. The point on the line at which the normalized fluorescence intensity was equal to 0.5 was found. […] The pKa determined using this method is precise to about 0.1 pKa units.

[2] = tested on: plasma Factor VII enzyme activity; test: Mouse Factor VII dosing / Factor VII Activity Assay; assay type: in vivo; conditions: percent knock down of plasma Factor VII activity, CD-1 mice, 48 h; for KD FVII 0.03 mg/kg: single IV dose 0.03 mg/kg; for KD FVII 0.3 mg/kg: single IV dose 0.3 mg/kg
Experimental: Female CD-1 mice were received from Harlan Labs and maintained on standard lab chow and water ad libitum. The animals weighed approximately 25 grams at time of dosing. Formulated Factor VII siRNA was administered as a single dose intravenously via the lateral tail vein. Approximately 48 hours after injection, the mice were euthanized by CO2 inhalation followed by exsanguination through the vena cava. […] Plasma collected from injected mice was assayed for Factor VII enzyme activity using the Biophen FVII kit from Hyphen Biomedical (catalog number 221304). An assay standard curve was prepared using pooled plasma aliquots from the vehicle control animals. All samples were diluted to fall within the linear range of the standard curve and Factor VII activity relative to control plasma was reported. Lipid nanoparticles comprising lipid compounds of formula (I) and the FVII siRNA duplex sequence listed above were tested in the Factor VII Activity Assay. The results of this assay are given in Table 4 below as a percent knock down of plasma Factor VII enzyme activity at a dose of 0.3 mg/kg and 0.03 mg/kg.

[3] = Particle size of lipid nanoparticle (dynamic light scattering, Malvern Zetasizer); assay type: physicochemical
Excerpt: The lipid nanoparticles have a size of about 1 to about 2,500 nm, about 1 to about 1,500 nm, about 1 to about 1,000 nm, in a sub-embodiment about 50 to about 600 nm, in a sub-embodiment about 50 to about 400 nm, in a sub-embodiment about 50 to about 250 nm, and in a sub-embodiment about 50 to about 150 nm. Unless indicated otherwise, all sizes referred to herein are the average sizes (diameters) of the fully formed nanoparticle, as measured by dynamic light scattering on a Malvern Zetasizer. The nanoparticle sample is diluted in phosphate buffered saline (PBS) so that the count rate is approximately 200-400 kcts. The data is presented as a weighted average of the intensity measure. Unless indicated otherwise, all particle size measurements referred to in Tables 4 and 5 are the Z-average particle size of the fully formed nanoparticle, as measured by dynamic light scattering on a Malvern Zetasizer. The nanoparticle sample was diluted in phosphate buffered saline (PBS) so that the count rate is approximately 200-400 kcts.

[4] = Polydispersity index (PDI) of lipid nanoparticle (dynamic light scattering); assay type: physicochemical
Experimental: Unless indicated otherwise, all PDIs referred to herein are the PDI of the fully formed nanoparticle, as measured by dynamic light scattering on a Malvern Zetasizer. The nanoparticle sample was diluted in phosphate buffered saline (PBS) so that the count rate was approximately 200-400 kcts. The data is presented in Tables 4 and 5 as a weighted average of the intensity measure.

[5] = LNP Chol/DSPC/PEG-DMG 45/44/9/2
[6] = PLK1-424 siRNA LNP, Chol/DSPC/S010 45/44/9/2

| pKa ([1]; probe TNS, read-out: pKa) | SMILES | KD FVII 0.03 mg/kg [2, 5] | KD FVII 0.3 mg/kg [2, 5] | also measured |
| --- | --- | --- | --- | --- |
| 6.08 | CCCCCCCCCC(=O)OCCCCCCCCOc1cc(COC(=O)CCN(C)C)cc(OCCCCCCCCOC(=O)CCCCCCCCC)c1 [Ex. 123] | – | – | – |
| 5.67 | CCCCCCCCC(CCCCCCCC)CC(=O)OCCCCOc1cc(CN(C)C)cc(OCCCCOC(=O)CC(CCCCCCCC)CCCCCCCC)c1 [Ex. 116, ((5-((dimethylamino)methyl)-1,3-phenylene)bis(oxy))bis(butane-4,1-diyl)bis(3-octylundecanoate)] | 29% | – | – |
| 5.75 | CCCCCCCC(=O)OCCCCCCCCCCOc1cc(CN(C)C)cc(OCCCCCCCCCCOC(=O)CCCCCCC)c1OCCCCCCCCCCOC(=O)CCCCCCC [Ex. 99, ((5-((dimethylamino)methyl)benzene-1,2,3-triyl)tris(oxy))tris(decane-10,1-diyl)trioctanoate] | – | – | – |
| 5.97 | CCCCCC(CCCCC)CCCCCCCC(=O)OCCCCOc1cc(CN(C)C)cc(OCCCCOC(=O)CCCCCCCC(CCCCC)CCCCC)c1 [Ex. 114, ((5-((dimethylamino)methyl)-1,3-phenylene)bis(oxy))bis(butane-4,1-diyl)bis(9-pentyltetradecanoate)] | 44% | – | – |
| 5.87 | CCCCCCCC(CCCCCCC)CCCC(=O)OCCCCOc1cc(CN(C)C)cc(OCCCCOC(=O)CCCC(CCCCCCC)CCCCCCC)c1 [Ex. 115, ((5-((dimethylamino)methyl)-1,3-phenylene)bis(oxy))bis(butane-4,1-diyl)bis(5-heptyldodecanoate)] | 78% | – | – |
| 5.67 | CCCCCCC(CCCCCC)CCCCCC(=O)OCc1cc(COC(=O)CCCCCC(CCCCCC)CCCCCC)cc(CN(C)C)c1 [Ex. 118, (5-((dimethylamino)methyl)-1,3-phenylene)bis(methylene)bis(7-hexyltridecanoate)] | 46.3% | – | – |
| 5.84 | CCCCCC(CCCCC)CCCCCCCC(=O)OCc1cc(COC(=O)CCCCCCCC(CCCCC)CCCCC)cc(CN(C)C)c1 [Ex. 119, (5-((dimethylamino)methyl)-1,3-phenylene)bis(methylene)bis(9-pentyltetradecanoate)] | 7.8% | – | – |

More lines, now with the values behind:

| SMILES | pKa ([1]; probe TNS, read-out: pKa) | KD FVII 0.03 mg/kg [2, 5] | KD FVII 0.3 mg/kg [2, 5] | also measured |
| --- | --- | --- | --- | --- |
| CCCCCCCCCC(=O)OCCCCCCCCOc1cc(COC(=O)CCCN(C)C)cc(OCCCCCCCCOC(=O)CCCCCCCCC)c1 [Ex. 124, ((5-(((4-(dimethylamino)butanoyl)oxy)methyl)-1,3-phenylene)bis(oxy))bis(octane-8,1-diyl)bis(decanoate)] | 7.11 | – | – | – |
| CCCCCCCCCCCC(=O)OCCCCCCCCOc1cc(CN(C)C)cc(OCCCCCCCCOC(=O)CCCCCCCCCCC)c1 [Example 53, ((5-((dimethylamino)methyl)-1,3-phenylene)bis(oxy))bis(octane-8,1-diyl)didodecanoate] | – | – | 96.6% | pKa ([1]; listed as Ex. 53): 5.84 |
| CCCCC/C=C\CC=CCCCCCCCC(=O)OCCCCOc1cc(CN(C)C)cc(OCCCCOC(=O)CCCCCCCC=CC/C=C\CCCCC)c1C [Example 51, (9Z,9′Z,12Z,12′Z)-((5-((dimethylamino)methyl)-2-methyl-1,3-phenylene)bis(oxy))bis(butane-4,1-diyl)bis(octadeca-9,12-dienoate)] | 5.91 | – | – | – |
| CCCCCCCCC(CCCCCCCC)CC(=O)OCCCOc1cc(CN(C)C)cc(OCCCOC(=O)CC(CCCCCCCC)CCCCCCCC)c1 [Example 56, ((5-((dimethylamino)methyl)-1,3-phenylene)bis(oxy))bis(propane-3,1-diyl)bis(3-octylundecanoate)] | – | – | 71.0% | pKa ([1]; listed as Ex. 56): 5.71 |
| CCCCCCCC(=O)OCCCCCCCCCC(=O)OCc1cc(COC(=O)CCCCCCCCCOC(=O)CCCCCCC)cc(CN(C)C)c1 [Example 86, (5-((dimethylamino)methyl)-1,3-phenylene)bis(methylene)bis(10-(octanoyloxy)decanoate)] | – | – | 55.3% | KD FVII 0.03 mg/kg ([2]; LNP Chol/DSPC/S010 45/44/9/2): 0%; pKa ([1]; listed as Ex. 86): 5.81 |
| CCCCCCCC(=O)OCC(COC(=O)CCCCCCC)OCCCCOc1cc(CN(C)C)cc(OCCCCOC(COC(=O)CCCCCCC)COC(=O)CCCCCCC)c1 [Ex. 125, ((((5-((dimethylamino)methyl)-1,3-phenylene)bis(oxy))bis(butane-4,1-diyl))bis(oxy))bis(propane-3,2,1-triyl)tetraoctanoate] | 5.75 | – | – | – |
| CCCCC/C=C\C/C=C\CCCCCCCC(=O)OCCCCOc1cc(CCCN2CCCCC2)cc(OCCCCOC(=O)CCCCCCC/C=C\C/C=C\CCCCC)c1 [Ex. 120, (9Z,9′Z,12Z,12′Z)-((5-(3-(piperidin-1-yl)propyl)-1,3-phenylene)bis(oxy))bis(butane-4,1-diyl)bis(octadeca-9,12-dienoate)] | 6.31 | 83.7% | – | – |
| CCCCCCCC(CCCCCCC)CCCC(=O)OCc1cc(COC(=O)CCCC(CCCCCCC)CCCCCCC)cc(CN(C)C)c1 [Ex. 117, (5-((dimethylamino)methyl)-1,3-phenylene)bis(methylene)bis(5-heptyldodecanoate)] | 5.46 | – | – | – |
| CCCCC/C=C\C/C=C\CCCCCCCC(=O)OCCCCOc1cc(CCCN2CCOCC2)cc(OCCCCOC(=O)CCCCCCC/C=C\C/C=C\CCCCC)c1 [Ex. 122, (9Z,9′Z,12Z,12′Z)-((5-(3-morpholinopropyl)-1,3-phenylene)bis(oxy))bis(butane-4,1-diyl)bis(octadeca-9,12-dienoate)] | 5.06 | – | – | – |
| CCCCC/C=C\C/C=C\CCCCCCCC(=O)OCCOCCOc1cc(CN(CC)CC)cc(OCCOCCOC(=O)CCCCCCC/C=C\C/C=C\CCCCC)c1 [Example 58, (9Z,9′Z,12Z,12′Z)-((((5-((diethylamino)methyl)-1,3-phenylene)bis(oxy))bis(ethane-2,1-diyl))bis(oxy))bis(ethane-2,1-diyl)bis(octadeca-9,12-dienoate)] | – | – | 78.1% | KD FVII 0.03 mg/kg ([2]; LNP Chol/DSPC/S010 45/44/9/2): 15.25%; pKa ([1]; listed as Ex. 58): 6.02 |
| CCCCCCCC/C=C\CCCCCCCCOc1cc(CN(C)C)cc(OCCCCCCCC/C=C\CCCCCCCC)c1 [Example 1, 1-(3,5-bis((Z)-octadec-9-en-1-yloxy)phenyl)-N,N-dimethylmethanamine] | – | – | 75.1% | Size (nm) ([3]; FVII siRNA LNP, Chol/DSPC/PEG-DMG, molar ratio 45/44/9/2, Z-average): 98.2 nm; Size (nm) ([3]; FVII siRNA LNP, Chol/DSPC/S010, molar ratio 45/44/9/2, Z-average): 87.16 nm; Size (nm) [3, 6]: 74.56 nm; PDI ([4]; FVII siRNA LNP, Chol/DSPC/PEG-DMG, molar ratio 45/44/9/2): 0.05; PDI ([4]; FVII siRNA LNP, Chol/DSPC/S010, molar ratio 45/44/9/2): 0.124; PDI [4, 6]: 0.152; KD FVII 0.03 mg/kg ([2]; LNP Chol/DSPC/S010 45/44/9/2): 30.8% |
| CCCCC/C=C\C/C=C\CCCCCCCC(=O)OCc1cc(COC(=O)CCCCCCC/C=C\C/C=C\CCCCC)cc(CN(C)C)c1 [Example 33, (9Z,9′Z,12Z,12′Z)-(5-((dimethylamino)methyl)-1,3-phenylene)bis(methylene)bis(octadeca-9,12-dienoate)] | – | – | 90.4% | pKa ([1]; listed as Ex. 33): 5.75 |
